Experimental findings from ChEMBL document CHEMBL5500364, “Design, synthesis, and biological evaluation of some 2-(3-oxo-5,6-diphenyl-1,2,4-triazin-2(3H)-yl)-N-phenylacetamide hybrids as MTDLs for Alzheimer's disease therapy” (Eur J Med Chem, 2024) are described below.

The test system of series [1] is Rattus norvegicus. In words: Reversal of amyloid beta (1 to 42 residues) induced cognitive impairment in Wistar rat assessed as decrease in BACE-1 level in CA3 region of hippocampus at 5 mg/kg, po pretreated with amyloid beta for 7 days followed by compound administration for 9 days and measured after 5 days by immuno histochemical analysis. It counts as functional, organism-based. To be noted: time 14.0 day.

Series [2] relates to Rattus norvegicus. Put plainly: Reversal of amyloid beta (1 to 42 residues) induced cognitive impairment in Wistar rat assessed as decrease in APP protein level at 5 mg/kg, po pretreated with amyloid beta for 7 days followed by compound administration for 9 days and measured after 5 days by Western blot analysis. In kind it is functional, organism-based. To be noted: time 14.0 day. (In general: Immunoblotting shows a protein as a band on a membrane.)

The test system of series [3] is Rattus norvegicus. Put plainly: Reversal of amyloid beta (1 to 42 residues) induced cognitive impairment in Wistar rat assessed as decrease in alpha-synuclein protein level at 5 mg/kg, po pretreated with amyloid beta for 7 days followed by compound administration for 9 days and measured after 5 days by Western blot analysis. In kind it is functional, organism-based. To be noted: time 14.0 day.

A short description of series [4]: Neurotoxicity in human SH-SY5Y cells assessed as reduction in cell population at 80 uM incubated for 24 hrs by MTT assay. (In general: Tetrazolium dyes change colour on reduction, which living cells bring about.)
The subject of series [5] is Rattus norvegicus. Put plainly: Reversal of amyloid beta (1 to 42 residues) induced cognitive impairment in Wistar rat assessed as reduction in neural dispersion at DG region in hippocampus at 5 mg/kg, po pretreated with amyloid beta for 7 days followed by compound administration for 9 days and measured after 5 days by Nissl's staining based analysis. It counts as functional, organism-based. To be noted: time 14.0 day.

The subject of series [6] is Rattus norvegicus. Put plainly: Reversal of amyloid beta (1 to 42 residues) induced cognitive impairment in Wistar rat assessed as decrease in BACE-1 protein level at 5 mg/kg, po pretreated with amyloid beta for 7 days followed by compound administration for 9 days and measured after 5 days by Western blot analysis. In kind it is functional, organism-based. To be noted: time 14.0 day.

The test system of series [7] is Rattus norvegicus. Put plainly: Reversal of amyloid beta (1 to 42 residues) induced cognitive impairment in Wistar rat assessed as reduction in escape latency time at 5 mg/kg, po pretreated with amyloid beta for 7 days followed by compound administration for 9 days and measured after 5 days by Morris water maze test. It counts as functional, organism-based. To be noted: time 14.0 day.

Series [8] concerns Rattus norvegicus. In words: Antialzheimer activity against scopolamine-induced amnesia in male Wistar rat model assessed as increase in total arm enteries at 5 mg/kg, po preadministered with compound for 30 mins starting from 7 th day trail followed by scopolamine administration and measured after 5 mins by Y maze test. In kind it is functional, organism-based. To be noted: time 35.0 min.

The test system of series [9] is Rattus norvegicus. In words: Reversal of amyloid beta (1 to 42 residues) induced cognitive impairment in Wistar rat assessed as decrease in Tau protein level at 5 mg/kg, po pretreated with amyloid beta for 7 days followed by compound administration for 9 days and measured after 5 days by Western blot analysis. To be noted: time 14.0 day. It counts as functional, organism-based.

Series [10] deals with Rattus norvegicus. Put plainly: Reversal of amyloid beta (1 to 42 residues) induced cognitive impairment in Wistar rat assessed as increase in platform crossings at 5 mg/kg, po pretreated with amyloid beta for 7 days followed by compound administration for 9 days and measured after 1 days by Morris water maze test. To be noted: time 10.0 day. It counts as functional, organism-based.

The test system of series [11] is Rattus norvegicus. Put plainly: Reversal of amyloid beta (1 to 42 residues) induced cognitive impairment in Wistar rat assessed as reduction in escape latency time at 5 mg/kg, po pretreated with amyloid beta for 7 days followed by compound administration for 9 days and measured after 1 days by Morris water maze test. In kind it is functional, organism-based. To be noted: time 10.0 day.

Series [12] relates to Rattus norvegicus. Put plainly: Reversal of amyloid beta (1 to 42 residues) induced cognitive impairment in Wistar rat assessed as decrease in amyloid-beta level in CA1 region of hippocampus at 5 mg/kg, po pretreated with amyloid beta for 7 days followed by compound administration for 9 days and measured after 5 days by immuno histochemical analysis. In kind it is functional, organism-based. To be noted: time 14.0 day.

Series [13] deals with Rattus norvegicus. In words: Reversal of amyloid beta (1 to 42 residues) induced cognitive impairment in Wistar rat assessed as decrease in amyloid-beta level in CA3 region of hippocampus at 5 mg/kg, po pretreated with amyloid beta for 7 days followed by compound administration for 9 days and measured after 5 days by immuno histochemical analysis. It counts as functional, organism-based. To be noted: time 14.0 day.

In series [14] the test system is Rattus norvegicus. Put plainly: Reversal of amyloid beta (1 to 42 residues) induced cognitive impairment in Wistar rat assessed as reduction in focal gliosis in cerebral cortex at 5 mg/kg, po pretreated with amyloid beta for 7 days followed by compound administration for 9 days and measured after 5 days by Nissl's staining based analysis. To be noted: time 14.0 day. It counts as functional, organism-based.

In series [15] the test system is Rattus norvegicus. Put plainly: Reversal of amyloid beta (1 to 42 residues) induced cognitive impairment in Wistar rat assessed as decrease in BACE-1 level in CA1 region of hippocampus at 5 mg/kg, po pretreated with amyloid beta for 7 days followed by compound administration for 9 days and measured after 5 days by immuno histochemical analysis. It counts as functional, organism-based. To be noted: time 14.0 day.

In series [16] the test system is Rattus norvegicus. Put plainly: Reversal of amyloid beta (1 to 42 residues) induced cognitive impairment in Wistar rat assessed as increase in platform crossings at 5 mg/kg, po pretreated with amyloid beta for 7 days followed by compound administration for 9 days and measured after 5 days by Morris water maze test. It counts as functional, organism-based. To be noted: time 14.0 day.

Series [17] deals with Rattus norvegicus. Put plainly: Antialzheimer activity against scopolamine-induced amnesia in male Wistar rat model assessed as restoration of memory function by measuring percentage spontaneous alteration at 5 mg/kg, po preadministered with compound for 30 mins starting from 7 th day trail followed by scopolamine administration and measured after 5 mins by Y maze test. In kind it is functional, organism-based. To be noted: time 35.0 min.

Series [18] deals with Rattus norvegicus. In words: Reversal of amyloid beta (1 to 42 residues) induced cognitive impairment in Wistar rat assessed as decrease in BACE-1 level in DG region of hippocampus at 5 mg/kg, po pretreated with amyloid beta for 7 days followed by compound administration for 9 days and measured after 5 days by immuno histochemical analysis. In kind it is functional, organism-based. To be noted: time 14.0 day.

For series [19], the system named is Rattus norvegicus. Put plainly: Reversal of amyloid beta (1 to 42 residues) induced cognitive impairment in Wistar rat assessed as reduction in appearance of pyknotic neuron bodies in hippocampus at 5 mg/kg, po pretreated with amyloid beta for 7 days followed by compound administration for 9 days and measured after 5 days by Nissl's staining based analysis. It counts as functional, organism-based. To be noted: time 14.0 day.

The test system of series [20] is Rattus norvegicus. In words: Reversal of amyloid beta (1 to 42 residues) induced cognitive impairment in Wistar rat assessed as decrease in amyloid-beta level in DG region of hippocampus at 5 mg/kg, po pretreated with amyloid beta for 7 days followed by compound administration for 9 days and measured after 5 days by immuno histochemical analysis. In kind it is functional, organism-based. To be noted: time 14.0 day.

Active and inactive are the calls of the source. No cut-off for these calls is given here.

On to `COc1cc2c(cc1OC)C(=O)C(CC1CCN(Cc3ccccc3)CC1)C2` (stereo not given) [DONEPEZIL], for which the result in the series with Rattus norvegicus [1], in the series on Rattus norvegicus [2], with Rattus norvegicus [3], with Rattus norvegicus [5], in the series on Rattus norvegicus [6] and in the series on Rattus norvegicus [7] was Active. Besides, the result with Rattus norvegicus [8], in the series with Rattus norvegicus [9], with Rattus norvegicus [12], in the series on Rattus norvegicus [13], in the series with Rattus norvegicus [14] and with Rattus norvegicus [15] was Active. The outcome with Rattus norvegicus [16], with Rattus norvegicus [17], in the series with Rattus norvegicus [18], in the series on Rattus norvegicus [19] and with Rattus norvegicus [20] was Active. For the same molecule, the Activity entry in [4] is on record as “Non-Toxic”. In addition, the result with Rattus norvegicus [10] and in the series with Rattus norvegicus [11] was inactive.
